Literature values as cited in patent publication US20060078541A1, “Method and formula for stem cells' stimulation, targeting release, trafficking and homing” (priority 2004, published 2006).

Conditions: in vivo

[Cs+] [Cesium ions]
biological half life (human): 50-60 days | assimilated: ~100%
